From patent US10640534B2 (Agios Pharmaceuticals, Inc., priority 2012, dated 2020)

test system: U87MG cells; assay: Cellular assay, inhibition of 2-HG production in U87MG cells; type: cell-based; details: Homo sapiens, U-87 MG, 48 h
In short: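 HT1080 or U87MG cells (U87MG kept with 500 ug/mL G418) seeded at 5000 cells/well and treated with compound at 0.2% final DMSO. Incubated 48 h at 37 °C. 2-HG inhibition determined by LC-MS. Viability read by CellTiter-Glo luminescence at 72 h post-dose.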

| Structure (SMILES) | IC50 |
| --- | --- |
| N#Cc1ccnc(N2C(=O)CC[C@H]2C(=O)N(c2cc(F)cc(F)c2)[C@H](C(=O)NC2CC(F)(F)C2)c2ncccc2Cl)c1 [Compound 198, (S)—N—((S)-1-(3-Chloropyridin-2-yl)-2-(3,3-difluorocyclobutylamino)-2-oxoethyl)-1-(4-cyanopyridin-2-yl)-N-(3,5-difluorophenyl)-5-oxopyrrolidine-2-carboxamide] | < 100 nM |
| N#Cc1ccnc(N2C(=O)[C@H](O)C[C@H]2C(=O)N(c2cc(F)cc(F)c2)[C@@H](C(=O)NC2CC(F)(F)C2)c2ccccc2Cl)n1 [Compound 116, (2S,4R)—N—((R)-1-(2-Chlorophenyl)-2-((3,3-difluorocyclobutyl)amino)-2-oxoethyl)-1-(4-cyanopyrimidin-2-yl)-N-(3,5-difluorophenyl)-4-hydroxy-5-oxopyrrolidine-2-carboxamide] | 100 to 500 nM |
| N#Cc1cccnc1N1C(=O)CC[C@H]1C(=O)N(c1cccc(F)c1)[C@H](C(=O)NC1CC(F)(F)C1)c1ccccc1Cl [Compound 69, (S)—N—((S)-1-(2-Chlorophenyl)-2-((3,3-difluorocyclobutyl)amino)-2-oxoethyl)-1-(3-cyanopyridin-2-yl)-N-(3-fluorophenyl)-5-oxopyrrolidine-2-carboxamide] | < 100 nM |
| CC(C)(O)c1cc(F)cc(N(C(=O)[C@@H]2COC(=O)N2c2cc(C#N)ccn2)C(C(=O)NC2CC(F)(F)C2)c2ccccc2Cl)c1 (stereo partly drawn) [Compound 145, (4S)—N-(1-(2-Chlorophenyl)-2-(3,3-difluorocyclobutylamino)-2-oxoethyl)-3-(4-cyanopyridin-2-yl)-N-(3-fluoro-5-(2-hydroxypropan-2-yl)phenyl)-2-oxooxazolidine-4-carboxamide] | < 100 nM |
| N#Cc1ccnc(N2C(=O)OC[C@H]2C(=O)N(c2cccc(F)c2)[C@H](C(=O)NC2CCC(F)(F)CC2)c2ccccc2Cl)c1 [Compound 78, (S)—N—((S)-1-(2-Chlorophenyl)-2-((4,4-difluorocyclohexyl)amino)-2-oxoethyl)-3-(4-cyano-pyridin-2-yl)-N-(3-fluorophenyl)-2-oxooxazolidine-4-carboxamide] | < 100 nM |

Further lines, results first:

| IC50 | Structure (SMILES) |
| --- | --- |
| 100 to 500 nM | CS(=O)(=O)c1cc(F)cc(N(C(=O)[C@@H]2CCC(=O)N2c2nccc(C#N)n2)[C@H](C(=O)NC2CC(F)(F)C2)c2ccccc2Cl)c1 [Compound 109, (S)—N—((S)-1-(2-Chlorophenyl)-2-((3,3-difluorocyclobutyl)amino)-2-oxoethyl)-1-(4-cyanopyrimidin-2-yl)-N-(3-fluoro-5-(methylsulfonyl)phenyl)-5-oxopyrrolidine-2-carboxamide] |
| 100 to 500 nM | O=C(NC1CC(F)(F)C1)[C@H](c1ccccc1Cl)N(C(=O)[C@@H]1CCC(=O)N1c1ncccn1)c1cccc(F)c1 [Compound 1] |
| < 100 nM | N#Cc1ccnc(N2C(=O)CC[C@H]2C(=O)N(c2cccc(CCO)c2)[C@H](C(=O)NC2CC(F)(F)C2)c2ccccc2Cl)c1 [Compound 160, (S)—N—((S)-1-(2-Chlorophenyl)-2-((3,3-difluorocyclobutyl)amino)-2-oxoethyl)-1-(4-cyanopyridin-2-yl)-N-(3-(2-hydroxyethyl)phenyl)-5-oxopyrrolidine-2-carboxamide] |
| < 100 nM | N#Cc1cccc(N(C(=O)[C@@H]2CCC(=O)N2c2nccc(C#N)n2)[C@H](C(=O)NC2CC(F)(F)C2)c2ccccc2Cl)c1 [Compound 167, (S)—N—((S)-1-(2-Chlorophenyl)-2-((3,3-difluorocyclobutyl)amino)-2-oxoethyl)-N-(3-cyanophenyl)-1-(4-cyanopyrimidin-2-yl)-5-oxopyrrolidine-2-carboxamide] |
| < 100 nM | N#Cc1cccc(N(C(=O)[C@@H]2CCC(=O)N2c2cc(C#N)ccn2)[C@H](C(=O)NC2CC(F)(F)C2)c2ccccc2Cl)c1 [Compound 128, (S)—N—((S)-1-(2-Chlorophenyl)-2-((3,3-difluorocyclobutyl)amino)-2-oxoethyl)-N-(3-cyano-phenyl)-1-(4-cyanopyridin-2-yl)-5-oxopyrrolidine-2-carboxamide] |
